Experimental findings from a melting point compilation (Tetko et al.; mined from patent text by program, amines drawn as free bases though some values may be those of a salt) are described below.

The structures appear in SMILES notation.

What is called melting point is the temperature of the solid-liquid transition. In turn, `COCCOc1cc(N(C)S(=O)(=O)c2ccccn2)c2[nH]c(C3=NCC(CC(N)=O)S3)cc2c1` (centres undefined) showed a melting point of 100 to 102 °C.

In turn, `Cn1c([N+](=O)[O-])cnc1COc1ccc([N+](=O)[O-])cc1C(F)(F)F` came in with a melting point of 153 °C.

The compound `COc1ccc2c(c1)c(C(C)C(=O)O)cc(=O)n2-c1ccc(Cl)cc1` (centres undefined) returned a melting point of 177 to 178 °C.

Compound `CCC(=O)N1CCC(NC(=O)Nc2ccc([N+](=O)[O-])cc2)CC1` returned a melting point of 240 to 241 °C.

Compound `O=C1NCCN1C(c1ccccc1)c1ccccc1` had a melting point of 200 to 202 °C.

Regarding `Cc1cc(CNS(=O)(=O)c2ccc(Br)s2)cc(C)n1`, the melting point turned out to be 138 °C.

In the case of `CC(=O)OCCn1ccc(=O)c(O)c1Cc1ccc(C)cc1`, the melting point fell in the range of 205 to 206 °C.

The compound `CC(=O)c1cccc(OCCCCCC(=O)O)c1` gave a melting point of 70 to 72 °C.

Compound `CCN(CC)CCOc1ccc2cc3ccc(OCCN(CC)CC)cc3nc2c1` had a melting point of 94 to 95 °C.

`COc1ccc(CN2C(=O)C3(COc4cc5c(cc43)CCO5)c3c2ccc2ncccc32)cc1` (centres undefined) had a melting point of 169 to 170 °C.

In turn, `O=C(O)Cc1ccc(CO[N+](=O)[O-])cc1` registered a melting point of 109 to 110 °C.

Consider `O=C1NCCNc2c1cccc2[N+](=O)[O-]`, for which the melting point was 191 to 195 °C.

`CCC(C)(C)NC(=O)n1nc(C)n(NC)c1=O` returned a melting point of 98 °C.

In the case of `CCCS(=O)(=O)NCCCCn1c(=O)c2c(C)nc3cccc1n32`, the melting point lay in the range of 150 to 151 °C.

In turn, `COc1ccc(-c2ccc3nc(NC(=O)c4ccc(C(C)(C)C)cc4)cn3c2)cn1` returned a melting point of 245 to 247 °C.

`Cc1c(F)cccc1C(=O)Nc1ccc(C(=O)N2Cc3ccnn3Cc3ccccc32)cc1` gave a melting point of 245 to 250 °C.

Compound `O=C(N1CCOCC1)N1Cc2c(-c3nc(C4CC4)cs3)ncn2-c2ccccc21` yielded a melting point of 193 to 194 °C.

For the compound `Nc1nc(-c2ccnc(-c3ccc(N4CCOCC4)cc3)c2)c(-c2ccccn2)s1`, the melting point is 276 °C.

Compound `CC1(c2ccccc2)C2=C(COC2=O)Nc2cc3c(cc21)OCO3` (centres undefined) gave a melting point of over 260 °C.

For the compound `COc1c(C)cc(C2=C(c3ccc(S(C)(=O)=O)cc3)OC(C)(C)C2=O)cc1C`, the melting point was in the range of 130 to 131 °C.

Regarding `CC(C)(C)c1ccc(CCOc2ccnc3c(F)cccc23)cc1`, the melting point fell in the range of 81 to 82 °C.

Regarding `Cc1nc2nc(SCc3ccccc3)nn2cc1Cl`, the melting point was 160 to 161 °C.

Compound `O=C1N=C(N2CCCCC2)SC1=Cc1cccc(-c2ccc(O)c(C34CC5CC(CC(C5)C3)C4)c2)c1` returned a melting point of 311 to 312 °C.

Compound `O=C(Cc1ccc(Cl)cc1)Nc1ccc(O)cc1O` displayed a melting point of 178 to 179 °C.

Turning to `Cc1ccc([N+](=O)[O-])cc1NC(=N)N`, the melting point was 135 to 142 °C.

In the case of `COc1ccc(-c2sc3c(c2C)c(=O)c(CO)cn3Cc2ccccc2OC)cc1`, the melting point lay within 153 to 156 °C.

With `COc1ccc(-c2ccc(C)nc2-c2ccc(O)cc2)cc1`, the melting point is 190 °C.

The compound `CCn1cnc2c(Nc3cccc(F)c3)nc(Cl)nc21` registered a melting point of 136 °C.

On to `O=C1C(c2ccccc2)=C(c2ccc(Cl)cc2)C(=O)N1c1ccc(Cl)cc1`, for which the melting point amounted to 157 °C.

Compound `O=C(NCCc1ccccc1)c1ccc(S(=O)(=O)NC(=O)c2ccc(C(=O)NCCO)nc2)cc1` returned a melting point of 228 to 230 °C.

Consider `CC(=O)N(Cc1cc(Br)cc2[nH]c(=O)c(=O)[nH]c12)CP(=O)(O)O`, for which the melting point was over 280 °C.

In turn, `CN1C(C(=O)Nc2ccc(O)c(=O)cc2)=C(O)c2ccccc2S1(=O)=O` registered a melting point of 258 to 265 °C.

`CCCCC1OC(=O)c2cc(NC(C)C)ccc21` (centres undefined) registered a melting point of 72 to 74 °C.

Take `O=c1c2c(c1=O)Nc1c(Cl)cc(C(F)(F)F)cc1N2`: the melting point was in the range of 335 to 337 °C.

As to `Cc1c(C)c2c(c(C)c1N)CC(C)(CN1CCN(c3ccccc3)CC1)O2` (centres undefined), the melting point fell in the range of 94 to 95 °C.

`C=C1C(=O)CCC(C)(C)C1=O` registered a melting point of 115 to 116 °C.

`CN1CCC(Oc2cccc(Cn3cnc4cc(-c5ccc(Cl)cc5)sc4c3=O)n2)CC1` yielded a melting point of 202 to 203 °C.

For `Cc1cc(C)nc(NC(N)=S)n1`, the melting point was over 260 °C.

`COc1cccc2c(NCc3ccccc3)nc(N)nc12`: the melting point lay within 243 to 245 °C.

In turn, `Cc1cc(C)cc(N2CCN(C(=O)Nc3cc(-c4cccnc4)nc4ccccc34)CC2)c1` returned a melting point of 211 to 213 °C.

With `Cc1ccc(-c2cn(C)cc(-c3ccccc3)c2=O)cc1`, the melting point came out at 144 °C.

For the compound `CCOC(=O)CN1C(=O)C(=O)N(C)C1=O`, the melting point was 97 to 98.5 °C.

For the compound `O=C(O)CCCCCCCCNS(=O)(=O)c1ccc(Br)cc1`, the melting point is 124 to 125 °C.

In turn, `NNc1c(F)cc(Cl)c2nc(Cl)sc12` came in with a melting point of 162 to 180 °C.

For the compound `CC(=O)N1CCN(c2nc(Cl)ccc2[N+](=O)[O-])CC1`, the melting point lay in the range of 137 to 138 °C.

Turning to `Cc1cc(C(O)(c2cc(C)sc2C)c2cc(C)sc2C)c(C)s1`, the melting point was 110 to 111 °C.

Turning to `COC(=O)C(NC(=O)C(NC(C)=O)(OC)C(Br)Br)=C(C)C` (centres undefined), the melting point was in the range of 150 to 151 °C.

Consider `O=C(NCCO)c1cccc(-c2ccc3[nH]cc(-c4ccc(Cl)cc4Cl)c3c2)c1`, for which the melting point was in the range of 140 to 141 °C.

`Cc1[nH]c2ccc(C3=NNC(=O)NC3C)cc2c1C` (centres undefined) displayed a melting point of 292 to 296 °C.

For `NC(=O)C(N)N=Nc1ccccc1C(=O)c1ccccn1` (centres undefined), the melting point lay in the range of 210 to 212 °C.

The compound `COC(=O)C(Cc1ccc(OCCn2ccc3ccc(C(=O)C4CC4)nc32)cc1)OCC(F)(F)F` (centres undefined) displayed a melting point of 123 °C.

`COCCOc1cc(C(F)(F)F)cnc1-c1nc(C)c(-c2ccnc(Nc3ccc(N4CCOCC4)cc3)n2)s1` displayed a melting point of 175 to 178 °C.

`COc1ccc(CCNc2nccc(-c3cccc(NC(=O)CCCN4C=CC=NC4)c3)n2)cc1OC` had a melting point of 121 to 122 °C.

Take `COc1cc(OC)c2c(=O)c3oc4ccc(OC)cc4c3oc2c1`: the melting point was in the range of 262 to 264 °C.

On to `CC(C)(O)CNC(=O)CC1CN=C(c2cc3cc(Oc4ccc(S(C)(=O)=O)nc4)cc(OC4CCOCC4)c3[nH]2)S1` (centres undefined), for which the melting point fell in the range of 195 to 196 °C.

In turn, `N#Cc1ccc2[nH]cc(C3CCC4(CC3)OCCO4)c2c1` yielded a melting point of 153 to 155 °C.

For the compound `O=C(Cc1c(-c2ccccc2)c2cc(CSc3ccccn3)c(Cl)cc2oc1=O)Nc1ccc(Cl)cc1C(F)(F)F`, the melting point lay in the range of 213 to 215 °C.

For `Cc1ccc(-c2nc3c([nH]c(=O)c4ccccc43)s2)cc1`, the melting point was in the range of 314 to 316 °C.

Consider `CCOC(=O)c1oc2ccc(CSC)c(O)c2c1C`, for which the melting point came out at 101 °C.

For `CO[C@H]1O[C@@H](C)[C@@H]2C(=O)[C@H]3CCCC[C@@H]3C[C@H]12`, the melting point lay in the range of 86 to 87 °C.

As for `ClC(=NNc1ccccc1)c1ccc(Br)cc1`, the melting point is 152 to 153 °C.

Consider `COC(=O)[C@H]1C=C(C2CCCCC2)OC(=O)[C@H]1Cc1ccccc1`, for which the melting point is 87 to 89 °C.

The compound `O=C(Nc1ccc(OCCNCC2CC2)cc1)c1c[nH]c2c1C(=O)CCC2` returned a melting point of 234 °C.

`Cc1ccc(C(=O)Nc2nc(=O)n(C)cc2F)cc1` showed a melting point of 229 to 230 °C.
